Reference: ChEMBL document CHEMBL5137006, “Synthesis and Characterization of Transition-State Analogue Inhibitors against Human DNA Methyltransferase 1” (J Med Chem, 2022)
The source made the active and inactive calls. The rule behind the calls is not given here.

Tests used:
[1] = target: T1, DNA (cytosine-5)-methyltransferase 1 (Homo sapiens, UniProt P26358); experiment: Inhibition of human recombinant full-length DNMT1 expressed in Sf9 cells assessed as inhibition of methylated dI-dC formation using poly dI-dC and [Me-3H]SAM as substrate incubated for 2 hrs by liquid scintillation counting analysis
[2] = target: T1, DNA (cytosine-5)-methyltransferase 1; experiment: (§1) Inhibition of human C-terminal domain DNMT1 catalytic domain (351 to 1600 residues) expressed in Escherichia coli BL21-CodonPlus (DE3)-RIL cells assessed as inhibition of methylated dI-dC formation using 5 ug/ml poly dI-dC and [Me-3H]SAM as substrate incubated for 2 hrs by liquid scintillation counting analysis
[3] = target: T1, DNA (cytosine-5)-methyltransferase 1; experiment: as §1, with “using” for “using 5 ug/ml”, “and 1 uM” for “and”
[4] = target: T1, DNA (cytosine-5)-methyltransferase 1; experiment: as §1, with “using 1” for “using 5”
[5] = target: T1, DNA (cytosine-5)-methyltransferase 1; experiment: as §1, with “using” for “using 5 ug/ml”, “and 6 uM” for “and”
[6] = target: T1, DNA (cytosine-5)-methyltransferase 1; experiment: as §1, with “using” for “using 5 ug/ml”, “and 12 uM” for “and”
[7] = target: T1, DNA (cytosine-5)-methyltransferase 1; experiment: Binding affinity to human C-terminal domain DNMT1 catalytic domain ([…] residues) expressed in Escherichia coli BL21-CodonPlus (DE3)-RIL cells by ultrafiltration binding assay
[8] = target: T1, DNA (cytosine-5)-methyltransferase 1; experiment: as §1, with “using 25” for “using 5”
[9] = target: T1, DNA (cytosine-5)-methyltransferase 1; experiment: as §1, with “using” for “using 5 ug/ml”, “and 8 uM” for “and”
[10] = target: T1, DNA (cytosine-5)-methyltransferase 1; experiment: Inhibition of DNMT1 in human HT-29 cells assessed as reduction of 5-methylcytosine in cellular DNA at 100 uM incubated for 96 hrs by nLC-MS analysis; format: cell-based

T1 sequence (P26358 whole entry, the tested form may be a part): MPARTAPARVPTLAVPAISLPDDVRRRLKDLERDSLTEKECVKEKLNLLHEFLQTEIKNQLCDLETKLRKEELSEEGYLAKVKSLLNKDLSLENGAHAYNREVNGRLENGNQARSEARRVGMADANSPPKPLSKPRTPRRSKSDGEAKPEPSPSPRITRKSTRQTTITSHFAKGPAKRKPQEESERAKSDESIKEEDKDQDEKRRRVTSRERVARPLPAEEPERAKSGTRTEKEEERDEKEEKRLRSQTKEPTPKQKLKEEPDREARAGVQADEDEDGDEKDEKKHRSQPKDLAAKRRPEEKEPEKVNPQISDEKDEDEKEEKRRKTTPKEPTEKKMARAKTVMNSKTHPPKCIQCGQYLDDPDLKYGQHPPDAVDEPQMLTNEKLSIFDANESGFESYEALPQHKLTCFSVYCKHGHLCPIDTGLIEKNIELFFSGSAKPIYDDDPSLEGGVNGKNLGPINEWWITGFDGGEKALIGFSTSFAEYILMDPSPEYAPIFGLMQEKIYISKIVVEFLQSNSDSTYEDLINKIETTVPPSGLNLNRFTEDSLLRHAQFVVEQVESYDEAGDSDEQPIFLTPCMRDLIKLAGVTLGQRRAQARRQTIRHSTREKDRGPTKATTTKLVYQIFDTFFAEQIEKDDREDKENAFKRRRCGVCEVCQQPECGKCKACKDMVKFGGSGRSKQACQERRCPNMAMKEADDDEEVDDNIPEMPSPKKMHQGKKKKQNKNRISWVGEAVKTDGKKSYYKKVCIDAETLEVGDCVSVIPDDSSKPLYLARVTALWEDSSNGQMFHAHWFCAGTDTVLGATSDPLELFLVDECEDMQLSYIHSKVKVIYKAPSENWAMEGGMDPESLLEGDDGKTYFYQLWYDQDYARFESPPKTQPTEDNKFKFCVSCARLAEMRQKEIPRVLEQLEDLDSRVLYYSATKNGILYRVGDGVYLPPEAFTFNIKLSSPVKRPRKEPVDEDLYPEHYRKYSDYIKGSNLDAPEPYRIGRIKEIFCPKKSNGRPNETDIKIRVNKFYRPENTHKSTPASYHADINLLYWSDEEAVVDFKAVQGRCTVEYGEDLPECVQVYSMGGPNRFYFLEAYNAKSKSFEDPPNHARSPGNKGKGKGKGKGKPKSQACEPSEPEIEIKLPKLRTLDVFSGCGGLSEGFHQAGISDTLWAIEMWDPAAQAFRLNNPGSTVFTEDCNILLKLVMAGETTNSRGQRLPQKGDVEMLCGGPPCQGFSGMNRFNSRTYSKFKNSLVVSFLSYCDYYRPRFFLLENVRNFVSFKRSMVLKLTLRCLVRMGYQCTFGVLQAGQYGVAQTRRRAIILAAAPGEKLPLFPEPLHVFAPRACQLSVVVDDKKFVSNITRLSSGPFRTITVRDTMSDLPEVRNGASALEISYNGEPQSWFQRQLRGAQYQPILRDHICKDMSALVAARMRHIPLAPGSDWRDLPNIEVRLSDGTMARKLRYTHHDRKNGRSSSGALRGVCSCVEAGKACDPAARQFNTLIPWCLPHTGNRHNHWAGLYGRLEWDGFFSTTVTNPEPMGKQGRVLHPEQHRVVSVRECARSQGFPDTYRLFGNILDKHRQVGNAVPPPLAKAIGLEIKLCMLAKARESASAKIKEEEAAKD

Row | Structure (SMILES) | IC50 [1] | further results
1 | Nc1nc(=O)n([C@H]2C[C@H](O)[C@@H](CO)O2)cc1CCCN(CC[C@H](N)C(=O)O)C[C@H]1O[C@@H](n2cnc3c(N)ncnc32)[C@H](O)[C@@H]1O | 2.9 µM | –
2 | Nc1nc(=O)n([C@H]2C[C@H](O)[C@@H](CO)O2)cc1CSCCC[C@H]1O[C@@H](n2cnc3c(N)ncnc32)[C@H](O)[C@@H]1O | 0.9 µM | –
3 | Nc1nc(=O)n([C@H]2C[C@H](O)[C@@H](CO)O2)cc1CNCCCC[C@H](N)C(=O)O | 2.7 µM | –
4 | Nc1nc(=O)n([C@H]2C[C@H](O)[C@@H](CO)O2)cc1CNCC(CC[C@H](N)C(=O)O)C[C@H]1O[C@@H](n2cnc3c(N)ncnc32)[C@H](O)[C@@H]1O (stereo not given in full) | 1.2 µM | IC50 [2]: 5.1 µM; IC50 [3]: 3.5 µM; IC50 [4]: 4 µM; IC50 [5]: 6.1 µM; IC50 [6]: 8.7 µM; Kd [7]: 7.3 µM; IC50 [8]: 5.4 µM; IC50 [9]: 6.7 µM
5 | Nc1nc(=O)n([C@H]2C[C@H](O)[C@@H](CO)O2)cc1CCCSC[C@H]1O[C@@H](n2cnc3c(N)ncnc32)[C@H](O)[C@@H]1O | > 100 µM | –
6 | Nc1nc(=O)n([C@H]2C[C@H](O)[C@@H](CO)O2)cc1CN(CC[C@H](N)C(=O)O)C[C@H]1O[C@@H](n2cnc3c(N)ncnc32)[C@H](O)[C@@H]1O | 8.5 µM | –
7 | Nc1nc(=O)n([C@H]2C[C@H](O)[C@@H](CO)O2)cc1CSCC[C@H](N)C(=O)O | 7.2 µM | –
8 | Nc1nc(=O)n([C@H]2C[C@H](O)[C@@H](CO)O2)cc1CSC[C@H]1O[C@@H](n2cnc3c(N)ncnc32)[C@H](O)[C@@H]1O | > 100 µM | –
9 | Nc1nc(=O)n([C@H]2C[C@H](O)[C@@H](CO)O2)cc1CNCC[C@H](N)C(=O)O | 17.2 µM | –
10 | Nc1nc(=O)n([C@H]2C[C@H](O)[C@@H](CO)O2)cc1CCSC[C@H]1O[C@@H](n2cnc3c(N)ncnc32)[C@H](O)[C@@H]1O | > 100 µM | –
11 | Nc1nc(=O)n([C@H]2C[C@H](O)[C@@H](CO)O2)cc1CNC[C@H]1O[C@@H](n2cnc3c(N)ncnc32)[C@H](O)[C@@H]1O | 0.4 µM | –
12 | Nc1nc(=O)n([C@H]2C[C@H](O)[C@@H](CO)O2)cc1CCCNC[C@H]1O[C@@H](n2cnc3c(N)ncnc32)[C@H](O)[C@@H]1O | 10.3 µM | –
13 | Nc1nc(=O)n([C@H]2C[C@H](O)[C@@H](CO)O2)cc1CSCCCC[C@H](N)C(=O)O | 1.1 µM | –
14 | NC1=NC(=O)N([C@H]2C[C@H](O)[C@@H](CO)O2)CN1CCCCCN(CC[C@H](N)C(=O)O)C[C@H]1O[C@@H](n2cnc3c(N)ncnc32)[C@H](O)[C@@H]1O | 19.6 µM | –
15 | Nc1nc(=O)n([C@H]2C[C@H](O)[C@@H](CO)O2)cc1SCCN(CC[C@H](N)C(=O)O)C[C@H]1O[C@@H](n2cnc3c(N)ncnc32)[C@H](O)[C@@H]1O | 3.6 µM | –
16 | Nc1nc(=O)n([C@H]2C[C@H](O)[C@@H](CO)O2)cc1CCN(CC[C@H](N)C(=O)O)C[C@H]1O[C@@H](n2cnc3c(N)ncnc32)[C@H](O)[C@@H]1O | 10.3 µM | –
17 | Nc1ncn(C2C[C@H](O)[C@@H](CO)O2)c(=O)n1 (stereo not given in full) | – | inhibition [10]: Active
